Legend:
Experiment in all cases: KAM-matrix competition in K562 lysate;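 on 0.001 uM KAM: median log10 fold change of treatment over DMSO control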;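 on 0.01 uM KAM: median log10 fold change of treatment over DMSO control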;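 on 0.1 uM KAM: median log10 fold change of treatment over DMSO control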;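 on 1 uM KAM: median log10 fold change of treatment over DMSO control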;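 on 10 uM KAM: median log10 fold change of treatment over DMSO control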
Type in all cases: binding
[1] = target: T1, BAZ1B (Homo sapiens, UniProt Q9UIG0);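 on 0.001 uM KAM: median log10 fold change of treatment over DMSO control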;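 on 0.01 uM KAM: median log10 fold change of treatment over DMSO control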;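 on 0.1 uM KAM: median log10 fold change of treatment over DMSO control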;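 on 1 uM KAM: median log10 fold change of treatment over DMSO control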;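 on 10 uM KAM: median log10 fold change of treatment over DMSO control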
T1 construct: endogenous in cells; host or cells: K562
T1 sequence (Q9UIG0 1-1483): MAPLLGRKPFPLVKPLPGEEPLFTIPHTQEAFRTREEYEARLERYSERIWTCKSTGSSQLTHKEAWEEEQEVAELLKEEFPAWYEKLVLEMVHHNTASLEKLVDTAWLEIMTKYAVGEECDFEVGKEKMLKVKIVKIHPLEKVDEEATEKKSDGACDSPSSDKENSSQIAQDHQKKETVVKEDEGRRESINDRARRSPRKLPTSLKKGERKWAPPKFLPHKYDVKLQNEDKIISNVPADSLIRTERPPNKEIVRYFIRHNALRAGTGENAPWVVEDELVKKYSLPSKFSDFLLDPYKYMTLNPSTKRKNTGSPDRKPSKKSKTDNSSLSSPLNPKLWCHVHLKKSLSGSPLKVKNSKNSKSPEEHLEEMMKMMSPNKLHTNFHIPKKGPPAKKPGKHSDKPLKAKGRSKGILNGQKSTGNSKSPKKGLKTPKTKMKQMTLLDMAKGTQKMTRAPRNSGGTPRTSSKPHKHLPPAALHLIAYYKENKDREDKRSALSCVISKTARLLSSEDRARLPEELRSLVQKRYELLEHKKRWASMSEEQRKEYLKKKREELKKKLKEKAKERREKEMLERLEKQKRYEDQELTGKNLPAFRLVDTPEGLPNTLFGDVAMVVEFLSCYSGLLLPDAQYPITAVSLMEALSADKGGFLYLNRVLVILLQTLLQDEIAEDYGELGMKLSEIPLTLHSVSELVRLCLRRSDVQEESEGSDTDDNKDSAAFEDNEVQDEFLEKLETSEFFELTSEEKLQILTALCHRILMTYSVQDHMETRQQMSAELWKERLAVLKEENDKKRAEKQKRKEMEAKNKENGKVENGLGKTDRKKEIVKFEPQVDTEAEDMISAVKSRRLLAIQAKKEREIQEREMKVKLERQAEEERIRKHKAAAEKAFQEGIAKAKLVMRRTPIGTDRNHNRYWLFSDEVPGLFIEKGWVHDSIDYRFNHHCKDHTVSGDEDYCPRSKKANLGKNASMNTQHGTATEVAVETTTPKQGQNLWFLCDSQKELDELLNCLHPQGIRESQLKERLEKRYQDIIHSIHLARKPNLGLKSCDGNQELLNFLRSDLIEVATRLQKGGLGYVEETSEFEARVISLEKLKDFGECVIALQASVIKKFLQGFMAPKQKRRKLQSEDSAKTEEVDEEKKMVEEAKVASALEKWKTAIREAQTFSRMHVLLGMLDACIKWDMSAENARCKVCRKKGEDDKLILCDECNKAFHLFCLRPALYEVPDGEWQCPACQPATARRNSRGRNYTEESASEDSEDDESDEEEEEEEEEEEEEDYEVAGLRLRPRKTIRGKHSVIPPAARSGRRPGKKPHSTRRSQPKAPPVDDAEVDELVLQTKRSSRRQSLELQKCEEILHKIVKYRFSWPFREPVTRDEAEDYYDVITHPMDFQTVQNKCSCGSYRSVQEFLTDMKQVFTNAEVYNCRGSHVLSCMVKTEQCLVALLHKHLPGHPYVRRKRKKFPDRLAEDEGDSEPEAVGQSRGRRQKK
Experimental: (§1) Supplement 12953_2017_125_MOESM1_ESM.zip/MS_Supp Info.xlsx, sheet "KAM" | column: 10 uM KAM; 1 uM KAM; 0.1 uM KAM; 0.01 uM KAM; 0.001 uM KAM; RB50

[2] = target: T2, PRKCB (Homo sapiens, UniProt P05771)
T2 construct: endogenous in cells; host or cells: K562
Experimental: as §1

[3] = target: T3, CSNK2A1 (Homo sapiens, UniProt P68400)
T3 construct: endogenous in cells; host or cells: K562
Experimental: as §1

[4] = read-out: RB50 (the source's name)

T2 sequence (P05771 whole entry): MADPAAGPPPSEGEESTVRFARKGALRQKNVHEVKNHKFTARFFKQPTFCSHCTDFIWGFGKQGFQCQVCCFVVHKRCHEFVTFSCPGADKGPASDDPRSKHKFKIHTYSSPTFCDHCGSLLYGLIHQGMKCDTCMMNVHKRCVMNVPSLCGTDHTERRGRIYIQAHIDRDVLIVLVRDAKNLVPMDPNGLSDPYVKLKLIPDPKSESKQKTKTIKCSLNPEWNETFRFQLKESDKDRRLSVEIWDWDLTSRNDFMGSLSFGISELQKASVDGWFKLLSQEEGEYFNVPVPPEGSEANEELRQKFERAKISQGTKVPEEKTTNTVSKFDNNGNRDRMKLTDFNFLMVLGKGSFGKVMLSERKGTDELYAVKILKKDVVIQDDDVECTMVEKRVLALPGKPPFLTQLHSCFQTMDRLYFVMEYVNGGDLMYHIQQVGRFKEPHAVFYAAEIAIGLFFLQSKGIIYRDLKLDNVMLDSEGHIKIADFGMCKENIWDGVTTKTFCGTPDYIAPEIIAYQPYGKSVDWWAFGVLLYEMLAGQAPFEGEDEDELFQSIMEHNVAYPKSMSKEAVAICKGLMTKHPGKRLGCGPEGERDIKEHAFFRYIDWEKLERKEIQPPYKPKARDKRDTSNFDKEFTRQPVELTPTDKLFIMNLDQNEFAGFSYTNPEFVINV
T3 sequence (P68400 whole entry): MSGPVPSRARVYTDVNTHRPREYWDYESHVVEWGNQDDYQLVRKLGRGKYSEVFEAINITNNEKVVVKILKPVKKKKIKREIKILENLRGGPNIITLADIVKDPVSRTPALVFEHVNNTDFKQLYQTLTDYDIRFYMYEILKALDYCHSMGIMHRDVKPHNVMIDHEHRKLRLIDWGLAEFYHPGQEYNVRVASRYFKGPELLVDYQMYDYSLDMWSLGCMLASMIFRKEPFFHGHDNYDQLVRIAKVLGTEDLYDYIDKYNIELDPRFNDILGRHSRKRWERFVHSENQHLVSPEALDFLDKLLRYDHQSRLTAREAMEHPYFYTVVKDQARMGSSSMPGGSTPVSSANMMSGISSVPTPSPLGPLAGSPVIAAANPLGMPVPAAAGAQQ

N#CCc1ccc(Nc2nc(NCCCN)cc(Nc3cc(C4CC4)[nH]n3)n2)cc1 [KAM]
IC50 ([1]; KAM 0.001-10 uM, read-out: RB50 (the source's name)): > 10000 nM
0.001 uM KAM ([1]; relative to 0 uM KAM = 0): -0.04632
0.01 uM KAM ([1]; relative to 0 uM KAM = 0): -0.04267
0.1 uM KAM ([1]; relative to 0 uM KAM = 0): -0.03143
1 uM KAM ([1]; relative to 0 uM KAM = 0): -0.000154
10 uM KAM ([1]; relative to 0 uM KAM = 0): -0.05532
median Log10 fold change ([2]; 0.001 uM KAM): -0.003193
median Log10 fold change ([2]; 0.01 uM KAM): -0.01706
median Log10 fold change ([2]; 0.1 uM KAM): -0.1711
median Log10 fold change ([2]; 1 uM KAM): -0.4944
median Log10 fold change ([2]; 10 uM KAM): -0.6051
IC50 [2, 4]: 354 nM
median Log10 fold change ([3]; 0.001 uM KAM): -0.001285
median Log10 fold change ([3]; 0.01 uM KAM): -0.02001
median Log10 fold change ([3]; 0.1 uM KAM): -0.3204
median Log10 fold change ([3]; 1 uM KAM): -0.6577
median Log10 fold change ([3]; 10 uM KAM): -0.7357
IC50 [3, 4]: 117 nM
